# Patent US20100292209A1, “METHODS FOR IDENTIFYING COMPOUNDS THAT MODULATE NEUROTROPHIC FACTOR SIGNALING” (Massachusetts Institute of Technology, priority 2007, published 2010)
# pIC50: −log10 of the molar value.
# Assays:
# PC12-ErbB4-GFP cells [1] = assay: Nrg1-induced neurite outgrowth, live-cell imaging; format: cell-based
# Procedure: (§1) Average outgrowth per cell was measured after 2 days incubation. C. Cells were pretreated with Iressa or Tarceva at various concentrations for 30 minutes followed by 20 ng/ml Nrg1. Mean outgrowth per cell was measured after 2 days incubation. D. Cells were pretreated with 2 μM Iressa or DMSO for 30 minutes followed by 20 ng/ml Nrg1 or NGF and lysed after 5 minutes. Cell lysates were immunoprecipitated by anti-ErbB4 antibody followed by western blotting with antibodies against phospho-tyrosine and ErbB4. Phosphor-ERK1/2 and total Erk2 levels were determined by direct western blotting with cell lysates.
# C. […] Mean outgrowth per cell was measured after 2 days incubation.
# ErbB4 [2] = molecular target: T1, ErbB4 (Homo sapiens, UniProt Q15303); assay: Iressa-conjugated agarose (iTrap) affinity capture of ErbB4 from cell lysate; format: binding; settings: 10 uM free Iressa
# T1 construct: expressed in transfected cells
# T1 sequence (Q15303 26-1292 isoform Q15303-3 limits assumed): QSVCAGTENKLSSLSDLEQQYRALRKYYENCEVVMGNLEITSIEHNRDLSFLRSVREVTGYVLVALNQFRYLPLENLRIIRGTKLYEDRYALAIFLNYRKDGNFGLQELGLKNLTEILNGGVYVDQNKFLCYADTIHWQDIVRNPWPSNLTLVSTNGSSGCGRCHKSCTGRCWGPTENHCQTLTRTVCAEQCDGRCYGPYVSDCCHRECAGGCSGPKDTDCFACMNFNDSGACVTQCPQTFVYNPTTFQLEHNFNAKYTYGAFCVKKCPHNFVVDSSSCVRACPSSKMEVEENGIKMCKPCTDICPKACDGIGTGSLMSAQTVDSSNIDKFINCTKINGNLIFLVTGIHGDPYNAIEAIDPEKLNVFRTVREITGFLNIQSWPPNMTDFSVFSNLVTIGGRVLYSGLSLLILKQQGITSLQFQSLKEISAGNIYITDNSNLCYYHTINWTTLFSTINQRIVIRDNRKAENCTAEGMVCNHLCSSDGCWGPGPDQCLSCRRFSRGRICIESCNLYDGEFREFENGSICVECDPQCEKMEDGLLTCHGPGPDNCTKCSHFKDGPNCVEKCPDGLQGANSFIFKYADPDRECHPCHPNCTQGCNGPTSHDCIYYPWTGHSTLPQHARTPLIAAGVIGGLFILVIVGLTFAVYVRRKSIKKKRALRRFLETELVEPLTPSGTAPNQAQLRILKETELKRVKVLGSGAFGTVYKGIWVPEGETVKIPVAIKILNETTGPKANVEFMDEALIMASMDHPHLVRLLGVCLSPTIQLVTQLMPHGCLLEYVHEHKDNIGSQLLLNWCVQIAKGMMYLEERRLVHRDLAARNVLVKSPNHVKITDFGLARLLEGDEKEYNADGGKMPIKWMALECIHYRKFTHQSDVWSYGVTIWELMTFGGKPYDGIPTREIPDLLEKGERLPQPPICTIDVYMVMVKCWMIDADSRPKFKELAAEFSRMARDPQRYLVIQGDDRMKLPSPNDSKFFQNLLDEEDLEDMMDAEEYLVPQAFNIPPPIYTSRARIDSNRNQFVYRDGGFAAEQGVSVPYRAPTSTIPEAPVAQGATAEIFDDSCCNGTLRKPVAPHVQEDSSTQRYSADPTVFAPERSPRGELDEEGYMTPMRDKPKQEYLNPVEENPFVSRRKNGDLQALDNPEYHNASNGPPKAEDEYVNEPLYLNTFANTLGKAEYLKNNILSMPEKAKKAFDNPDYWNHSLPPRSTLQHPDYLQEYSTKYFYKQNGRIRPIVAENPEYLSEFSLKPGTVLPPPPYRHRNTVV
# Procedure: PC12-ErbB4-GFP cells were lysed with modified RIPA buffer at 4° C. for 10 min and the cell lysate was cleared by centrifugation. The cleared lysate (0.40 ml) was tumbled with Iressa (10 μM) or DMSO (1:1000 v/v) as indicated at 4° C. for 30 min before addition of the iTrap resin (10 μA). The resulting mixture was tumbled at 4° C. for 12 hours. The suspension was centrifuged and the supernatant was discarded. The resin was washed with the above modified RIPA buffer (1.0 ml) for four times. The captured proteins were separated by SDS-PAGE. The Western immunoblotting experiment was then performed using anti-ErbB4 antibody.
# Agarose beads (iTrap) conjugated with a derivative of Iressa (Iressa—2, FIG. 6A) were used to examine the affinity of Iressa against ErbB4.
# ErbB4 [3] = molecular target: T1, ErbB4; assay: Nrg1-induced ErbB4 phosphorylation (immunoprecipitation, western blot); format: cell-based; settings: 1 μM Iressa, 20 ng/ml Nrg1, lysed after 5 minutes
# Procedure: as §1, with “Cells were pretreated with 2 μM Iressa or DMSO for 30 minutes followed by 20 ng/ml Nrg1 or NGF and lysed after 5 minutes.” left out
# (§2) Cells were lysed with RIPA buffer (Pierce Technology, Rockford, Ill.) containing 1 tablet/10 ml protease inhibitor cocktail Complete Mini (Roche Applied Science). For phosphoprotein analysis, Halt Phosphatase Inhibitor Cocktail (Pierce Technology) was also included. Cell lysate was cleared by centrifuge at 15,000 rpm for 30 min followed by addition of LDS sample buffer (Invitrogen) for direct analysis or immunoprecipitated with specific primary antibodies and Protein A/G agarose (Pierce Technology) following the manufacturer's protocol. […] The membrane was probed with specific primary antibodies according to specified recipes provided by their vendors and then horse radish peroxidase-conjugated secondary antibody to mouse or rabbit IgG (GE Healthcare, Piscataway, N.J.). Target protein bands were detected with SuperSignal West Femto Max Sensitivity Substrate (Pierce Technology).
# ERK/MAPK = ERK/MAPK phosphorylation (western blot of cell lysates); format: cell-based
# Procedure: as §1, with “Cells were pretreated with 2 μM Iressa or DMSO for 30 minutes followed by 20 ng/ml Nrg1 or NGF and lysed after 5 minutes.” left out
# as §2
# PC12-ErbB4 = assay: Uptake of Alexa594-labeled Nrg1; format: cell-based; settings: K252a 50 nM 12 hrs, then Alexa594-labeled Nrg1 30 min, compared to DMSO-treated cells
# Procedure: (§3) A. Cells were treated without or with K252a (50 nM), K252a-Me (50 nM) for 30 min followed by treatment with or without 20 ng/mL Nrg1. Cells were lysed 12 hrs after Nrg1 treatment and analyzed by Western blot with anti-ErbB4 antibody. The bands that correspond to ErbB4 are indicated. B. Cells were treated without or with K252a (50 nM), K252a-Me (50 nM) for 12 hrs then fixed and immunostained with anti-ErbB4 and Alexa594 conjugated secondary antibody. GFP and Alexa594 fluorescent cell images were taken using a 20× objective. C. Cells were treated without or with K252a (50 nM) for 12 hrs followed by treatment of 20 ng/mL Alexa594-Nrg1 for 30 mins and fixed. GFP and Alexa594 fluorescent cell images were taken using a 40× objective.
# (§4) This phenomenon, confirmed by immunofluorescence staining for ErbB4 in PC12-ErbB4 (FIG. 7B), might explain why K252a potentiate Nrg1-induced neurite outgrowth. To verify that increased level of ErbB4 does contribute to neuregulin signaling, we examined the Nrg1 uptake with Alexa594-labeled Nrg1 (FIG. 7C). Cells were treated with K252a for 12 hrs followed by Alexa594-labeled Nrg1 for 30 min.
# PC12-ErbB4-GFP cells [4] = assay: NGF-induced neurite outgrowth, live-cell imaging; format: cell-based
# ErbB4 [5] = assay: ErbB4 level (western blot, immunofluorescence staining); format: cell-based, human; settings: 50 nM, 12 hrs treatment, PC12-ErbB4
# Procedure: as §3, §4
# NGF-TrkA signaling = settings: compared with K252a; cited from earlier work
# neurotrophin-3 = settings: cited from earlier work
# PFC pyramidal neuron = PFC pyramidal neuron current assay; cited from earlier work
# [6] = system: cultured hippocampal neurons; settings: cited from earlier work
compound,measurement,setting,value
"COc1cc2ncnc(Nc3cccc(Cl)c3)c2cc1OC [AG1478, 4-(3-Chloroanilino-6,7-dimethoxy)-quinazoline]",effect on Nrg1-induced neurite outgrowth,"PC12-ErbB4-GFP cells [1]; 1 μM AG1478, 20 ng/ml Nrg1, 2 days",can specifically inhibit
"COc1cc2ncnc(Nc3ccc(F)c(Cl)c3)c2cc1OCCCN1CCOCC1 [Iressa, N-(3-chloro-4-fluoro-phenyl)-7-methoxy-6-(3-morpholin-4-ylpropoxy)quinazolin-4-amine]",precipitation of ErbB4 by iTrap in competition with free Iressa,ErbB4 [2],attenuated
same,phosphorylation of ErbB4 receptors induced by Nrg1,ErbB4 [3],inhibited
same,subsequent phosphorylation of ERK/MAPK (Nrg1-induced),ERK/MAPK; 20 ng/ml Nrg1,diminished
same,NGF-induced MAPK activation,"ERK/MAPK; Iressa, 20 ng/ml NGF",did not affect
"COC(=O)[C@@]1(O)C[C@H]2O[C@]1(C)n1c3ccccc3c3c4c(c5c6ccccc6n2c5c31)C(=O)NC4 [K252a, methyl (5R,6R,8R)-6-hydroxy-5-methyl-13-oxo-5,6,7,8,14,15-hexahydro-13H-5,8-epoxy-4b,8a,14-triazadibenzo[b,h]cycloocta[1,2,3,4-jkl]cyclopenta[e]-as-indacene-6-carboxylate]",Nrg1 uptake,PC12-ErbB4,significantly higher
same,inhibition of NGF-induced neurite outgrowth,PC12-ErbB4-GFP cells [4]; K252a at 10 nM,completely inhibited
same,level of ErbB4,ErbB4 [5],significantly increased
same,potentiation of Nrg1-induced neurite outgrowth,PC12-ErbB4-GFP cells [1]; same concentration range (10 nM),potentiated
CC12OC(CC1(O)C(=O)O)n1c3ccccc3c3c4c(c5c6ccccc6n2c5c31)C(=O)NC4 (centres unmarked) [K252b],potency on inhibiting NGF-TrkA signaling,NGF-TrkA signaling,much lower potency
same,trophic action of neurotrophin-3,neurotrophin-3,potentiates
O=C1NCc2c1c1c3ccccc3[nH]c1c1[nH]c3ccccc3c21 [K252c],effect on Nrg1-induced neurite outgrowth in kinase inhibitor screening,"PC12-ErbB4-GFP cells [1]; single dose (10 micromolar), 48 hours",potentiates
CNc1cc2c(Nc3cccc(Br)c3)ncnc2cn1 [PD158780],decrement in current caused by Nrg1,PFC pyramidal neuron,reverses
same,Nrg1 induced neurite outgrowth in cultured hippocampal neurons,[6],decreases
"C#Cc1cccc(Nc2ncnc3cc(OCCOC)c(OCCOC)cc23)c1 [Tarceva, N-(3-ethynylphenyl)-6,7-bis(2-methoxyethoxy)quinazolin-4-amine]",inhibition of NGF-induced neurite outgrowth,PC12-ErbB4-GFP cells [4]; concentration range of 100 nM˜1 (data not shown),not inhibited
same,pIC50,PC12-ErbB4-GFP cells [1]; read-out: IC50 of inhibition of Nrg1-induced neurite outgrowth,6.30
"NGF: Nerve Growth Factor, neurotrophin",mean neurite length induced by NGF,"PC12-ErbB4-GFP cells [4]; 20 ng/ml, in the presence of DMSO, 48 hours",8.7±1.5 μm
